These results are taken from publication PMC11573584, “Thanatin and vinyl sulfide analogues as narrow spectrum antimicrobial peptides that synergise with polymyxin B” (Frontiers in Pharmacology, 2024).

≈ marks a conversion by molar mass, not a printed value. Read-outs that look alike come from different tables or passages of the source. Numbered stars: 1 amine (or outer) side, 2 acyl side, 3 side chain; on linkers, the order of the positions; unused ones are H or OH. Bridge positions count the residues as written; N and C are the ends. Square brackets hold non-standard residues; d marks the D form. Peptide text beside a SMILES is read from it. X1 = C=C(CC(=O)[*:1])[*:2]; X2 = C=C(CC(=O)[*:2])[*:1]; Dap = NC[C@H](N)C(=O)O A value given as a limit tells only on which side of the number the result lay.

For test [1], the system named is Candida albicans SC5314 (type strain). The test can be described thus: microbe, parasite or virus in culture. The class given is cell-based. Conditions: read-out: Minimum inhibitory concentration (MIC). How it is done:
Candida albicans SC5314 (type strain) was grown using RPMI 1640 media (with glutamine and phenol red, without bicarbonate). MIC assays were performed in accordance with the CLSI recommended protocol ([Clinical and Laboratory Standards Institute, 2006], Performance standards for antimicrobial susceptibility testing; sixteenth informational supplement. CLSI document M100-S16, Wayne, PA., 2006). See SI for further details. […]
Antimicrobial susceptibility of Candida albicans SC5314 (type strain) was assessed by broth
microdilution in accordance with the CLSI recommended protocols (Clinical and Laboratory Standards
Institute, 2006, Performance standards for antimicrobial susceptibility testing; sixteenth informational
supplement. CLSI document M100-S16, Wayne, PA., 2006). Briefly, a two-fold dilution series of the
test compounds (from 64 μM to 0.25 μM, final) was prepared in triplicate in polypropylene 96-well
plates, using RPMI 1640 media (with glutamine and phenol red, without bicarbonate). Inoculum was
prepared from a 24 h old culture by picking 5 colonies (~1 mm in diameter) and resuspending these in
0.85% saline. Upon vortex mixing, the resulting suspension was diluted to provide a solution with
absorbance equivalent to that of a 0.5 McFarland standard, approx. 0.1 OD at 530 nm (using 1 cm path
length cuvette). This suspension was then diluted 1:50 and a further 1:20 with RPMI 1640 media to as
to achieve a final inoculum of […] to 2.5 x 10^3 CFU/mL upon addition to the plate. The plates
were incubated at 35 °C for 48 h, at which time the MIC was determined as the lowest test concentration
at which no turbidity was observed across all three replicates. The assay was performed independently
on three occasions and the reported MIC defined as the lowest concentration in which agreement was
observed for all three biological replicates.

In test [2] the test system is Staphylococcus aureus ATCC 29213. The experiment in a line: microbe, parasite or virus in culture. As to conditions: for MIC: read-out: Minimum inhibitory concentration (MIC). The class given is cell-based. How it is done:
(§1) Staphylococcus aureus ATCC 29213, Pseudomonas aeruginosa (SVB-B9) (type strain) and Escherichia coli ATCC 25922 were grown in cation adjusted Mueller Hinton (MH) broth at 37°C with shaking (200 rpm). MIC assays were performed in accordance with the CLSI recommended protocols ([Clinical and Laboratory Standards Institute, 2006], Performance standards for antimicrobial susceptibility testing; sixteenth informational supplement. CLSI document M100-S16, Wayne, PA., 2006). See SI for further details.
(§2) 4 Antimicrobial Testing of Thanatin* (5) and Analogues 8 – 11
(§3) 4.1 Antibacterial Testing
(§4) Staphylococcus aureus ATCC 29213, Pseudomonas aeruginosa (SVB-B9) (type strain) and
(§5) Escherichia coli ATCC 25922 were grown in cation adjusted Mueller Hinton (CAMHB) broth at 37
(§6) °C with shaking (200 rpm). MIC assays were performed in accordance with the CLSI recommended
(§7) protocol (Clinical and Laboratory Standards Institute, 2006, Performance standards for antimicrobial
(§8) susceptibility testing; sixteenth informational supplement. CLSI document M100-S16, Wayne, PA.,
(§9) 2006). Briefly, a two-fold dilution series of the test compounds (from […], final) was
(§10) prepared in triplicate in polypropylene 96-well plates in CAMHB. Fresh cultures of bacteria grown for
(§11) ca. 6 h were diluted accordingly in fresh media before adding 50 µL of inoculum to each well of the
(§12) MIC plate, to achieve a final volume of 100 µL with a uniform CFU/ml of ~5 x105 in each well. A
(§13) growth control (untreated) and sterility control (non-inoculated) well was included for each test
(§14) compound replicate. Plates were incubated at 37 °C with shaking for 18 h before determining the MIC.
(§15) MIC values were determined as the lowest concentration at which no growth was observed consistently
(§16) across all three biological replicates of the assay and within triplicates of each test compound. […]

In test [3] the test system is Pseudomonas aeruginosa (SVB-B9) (type strain). In kind it is cell-based. As to conditions: 18 h. How it is done:
as §1, §2, §3, §4, §5, §6, §7, §8, §9, §10, §11, §12, §13, §14, §15, §16

The subject of test [4] is Escherichia coli ATCC 25922. The class given is cell-based. How it is done:
as §1, §2, §3, §4, §5, §6, §7, §8, §9, §10, §11, §12, §13, §14, §15, §16

Test [5] relates to P. aeruginosa. Conditions: ref Cirioni et al., 2011, cited from earlier work.
Test [6] has as its system E. coli ATCC 25922. As to conditions: non-cation adjusted media, ref Wu et al. (2013); cited from earlier work. The text has this: TABLE 1 Minimum Inhibitory Concentrations (MICs) of thanatin* (5) and similar analogues against a variety of pathogens. | column: Minimum inhibitory concentration (µM) / Thanatin ^a ^, ^b (1); Minimum inhibitory concentration (µM) / S-Thanatin ^a (3) || TABLE 2 Minimum Inhibitory Concentrations (MICs) of thanatin* (5) and analogues (8–11) towards a variety of pathogens. | column: Minimum inhibitory concentration (µM) / 1 (Thanatin) ^a

`C[C@@H]1[C@H](O)[C@@H](C)/C=C/C=C/C=C/C=C/C=C/C=C/C=C/[C@H](O[C@@H]2O[C@H](C)[C@@H](O)[C@H](N)[C@@H]2O)C[C@@H]2O[C@](O)(C[C@@H](O)C[C@@H](O)[C@H](O)CC[C@@H](O)C[C@@H](O)CC(=O)O[C@H]1C)C[C@H](O)[C@H]2C(=O)O` [AMB, amphotericin B, reference compound]: the MIC in test [1] (Candida albicans, C. albicans SC5314, RPMI 1640 media, 35 °C, 48 h, triplicate, three independent assays) amounted to 1 µM (≈ 0.924 µg/mL).
As for `CC1(C)S[C@@H]2[C@H](NC(=O)[C@H](N)c3ccc(O)cc3)C(=O)N2[C@H]1C(=O)O` [AMX, amoxicillin, reference compound], in test [2] (Staphylococcus aureus, ATCC29213, S. aureus ATCC 29213, cation adjusted Mueller Hinton broth, 37 °C, 18 h, ~5 x10^5 CFU/mL, triplicate, three biological replicates), the MIC came out at 2 µM (≈ 0.731 µg/mL).
Consider `CC[C@H](C)[C@H](NC(=O)[C@@H](NC(=O)[C@@H]1CCCN1C(=O)[C@@H](NC(=O)[C@@H]1CCCN1C(=O)[C@H](CCCCN)NC(=O)[C@H](CCCCN)NC(=O)[C@H](CO)NC(=O)CN)C(C)C)[C@@H](C)CC)C(=O)N[C@@H](Cc1ccc(O)cc1)C(=O)N[C@H]1CSSC[C@@H](C(=O)N[C@@H](CCC(N)=O)C(=O)N[C@@H](CCCNC(=N)N)C(=O)N[C@@H](Cc2ccccc2)C(N)=O)NC(=O)[C@H](CCCCN)NC(=O)CNC(=O)[C@H](CO)NC(=O)[C@H](CCCNC(=N)N)NC(=O)[C@H](CCCNC(=N)N)NC(=O)[C@H](CC(N)=O)NC1=O` [Thanatin* (5), thanatin*] (H-GSKKPVPIIYCNRRSGKCQRF-NH2; disulfide 11-18), for which the MIC in test [1] (SC5314, 48 h) was greater than 64 µM; in test [2] (ATCC 29213, 18 h), greater than 64 µM. Moreover, the “Minimum inhibitory concentration (MIC)” value in test [3] (SVB-B9) (type strain) was greater than 64 µM; in test [4] (ATCC 25922, 18 h), 1 µM (≈ 2.43 µg/mL); in test [2] (S. aureus ATCC 29213, cation adjusted Mueller Hinton broth, 37 °C, 18 h, ~5 x10^5 CFU/mL, triplicate, three biological replicates), “no activity”. In addition, in test [4] (ratio of MICs, P. aeruginosa (SVB-B9) vs E. coli ATCC 25922, cation adjusted media), the “selectivity towards E. coli over P. aeruginosa” value is greater than 64 fold.
Regarding `C=C1CC(=O)NCCCC[C@H](NC(=O)[C@H](Cc2ccc(O)cc2)NC(=O)[C@@H](NC(=O)[C@@H](NC(=O)[C@@H]2CCCN2C(=O)[C@@H](NC(=O)[C@@H]2CCCN2C(=O)[C@H](CCCCN)NC(=O)[C@H](CCCCN)NC(=O)[C@H](CO)NC(=O)CN)C(C)C)[C@@H](C)CC)[C@@H](C)CC)C(=O)N[C@@H](CC(N)=O)C(=O)N[C@@H](CCCNC(=N)N)C(=O)N[C@@H](CCCNC(=N)N)C(=O)N[C@@H](CO)C(=O)NCC(=O)N[C@@H](CCCCN)C(=O)N[C@H](C(=O)N[C@@H](CCC(N)=O)C(=O)N[C@@H](CCCNC(=N)N)C(=O)N[C@@H](Cc2ccccc2)C(N)=O)CS1` [compound 8] (H-GSKKPVPIIYKNRRSGKCQRF-NH2; linker 11-18 via X1), the MIC in test [1] (SC5314, 48 h) is listed as greater than 64 µM; in test [2] (ATCC 29213, 18 h), greater than 64 µM. Moreover, the “Minimum inhibitory concentration (MIC)” value is reported as greater than 64 µM in test [3] (SVB-B9) (type strain) and 4 µM (≈ 10.1 µg/mL) in test [4] (ATCC 25922, 18 h).
As for `C=C1CC(=O)NC[C@H](NC(=O)[C@H](Cc2ccc(O)cc2)NC(=O)[C@@H](NC(=O)[C@@H](NC(=O)[C@@H]2CCCN2C(=O)[C@@H](NC(=O)[C@@H]2CCCN2C(=O)[C@H](CCCCN)NC(=O)[C@H](CCCCN)NC(=O)[C@H](CO)NC(=O)CN)C(C)C)[C@@H](C)CC)[C@@H](C)CC)C(=O)N[C@@H](CC(N)=O)C(=O)N[C@@H](CCCNC(=N)N)C(=O)N[C@@H](CCCNC(=N)N)C(=O)N[C@@H](CO)C(=O)NCC(=O)N[C@@H](CCCCN)C(=O)N[C@H](C(=O)N[C@@H](CCC(N)=O)C(=O)N[C@@H](CCCNC(=N)N)C(=O)N[C@@H](Cc2ccccc2)C(N)=O)CS1` [compound 9] (H-GSKKPVPIIY[Dap]NRRSGKCQRF-NH2; linker 11-18 via X1), the MIC in test [1] (SC5314, 48 h) is greater than 64 µM; in test [2] (ATCC 29213, 18 h) it was greater than 64 µM. In addition, the “Minimum inhibitory concentration (MIC)” value in test [3] (SVB-B9) (type strain) was greater than 64 µM; in test [4] (ATCC 25922, 18 h) it was 16 µM (≈ 39.8 µg/mL). For the same compound, the “reduction in potency compared to thanatin* (5)” value in test [4] (E. coli ATCC 25922 MIC) is 16 fold.
With `C=C1CC(=O)NCCCC[C@@H](C(=O)N[C@@H](CCC(N)=O)C(=O)N[C@@H](CCCNC(=N)N)C(=O)N[C@@H](Cc2ccccc2)C(N)=O)NC(=O)[C@H](CCCCN)NC(=O)CNC(=O)[C@H](CO)NC(=O)[C@H](CCCNC(=N)N)NC(=O)[C@H](CCCNC(=N)N)NC(=O)[C@H](CC(N)=O)NC(=O)[C@@H](NC(=O)[C@H](Cc2ccc(O)cc2)NC(=O)[C@@H](NC(=O)[C@@H](NC(=O)[C@@H]2CCCN2C(=O)[C@@H](NC(=O)[C@@H]2CCCN2C(=O)[C@H](CCCCN)NC(=O)[C@H](CCCCN)NC(=O)[C@H](CO)NC(=O)CN)C(C)C)[C@@H](C)CC)[C@@H](C)CC)CS1` [compound 10] (H-GSKKPVPIIYCNRRSGKKQRF-NH2; linker 11-18 via X2), the MIC is on record as greater than 64 µM in test [1] (SC5314, 48 h) and greater than 64 µM in test [2] (ATCC 29213, 18 h). In addition, the “Minimum inhibitory concentration (MIC)” value in test [3] (SVB-B9) (type strain) was greater than 64 µM; in test [4] (ATCC 25922, 18 h), 4 µM (≈ 10.1 µg/mL).
In the case of `C=C1CC(=O)NC[C@@H](C(=O)N[C@@H](CCC(N)=O)C(=O)N[C@@H](CCCNC(=N)N)C(=O)N[C@@H](Cc2ccccc2)C(N)=O)NC(=O)[C@H](CCCCN)NC(=O)CNC(=O)[C@H](CO)NC(=O)[C@H](CCCNC(=N)N)NC(=O)[C@H](CCCNC(=N)N)NC(=O)[C@H](CC(N)=O)NC(=O)[C@@H](NC(=O)[C@H](Cc2ccc(O)cc2)NC(=O)[C@@H](NC(=O)[C@@H](NC(=O)[C@@H]2CCCN2C(=O)[C@@H](NC(=O)[C@@H]2CCCN2C(=O)[C@H](CCCCN)NC(=O)[C@H](CCCCN)NC(=O)[C@H](CO)NC(=O)CN)C(C)C)[C@@H](C)CC)[C@@H](C)CC)CS1` [compound 11] (H-GSKKPVPIIYCNRRSGK[Dap]QRF-NH2; linker 11-18 via X2), the MIC is listed as greater than 64 µM in test [1] (SC5314, 48 h) and greater than 64 µM in test [2] (ATCC 29213, 18 h). Also, the “Minimum inhibitory concentration (MIC)” value is on record as greater than 64 µM in test [3] (SVB-B9) (type strain) and 8 µM (≈ 19.9 µg/mL) in test [4] (ATCC 25922, 18 h).
For S-thanatin [S-Thanatin (3)], the FICI in test [5] (S-thanatin with colistin (polymyxin E)) was 0.46. Also, in test [5], the MIC was 16 µg/mL. In addition, the “Minimum inhibitory concentration (MIC)” value in test [6] was 1.6 µM.
As for polymyxin B [PMB, reference compound], the “Minimum inhibitory concentration (MIC)” value in test [3] (P. aeruginosa (SVB-B9) type strain, cation adjusted Mueller Hinton broth, 37 °C, ~5 x10^5 CFU/mL, triplicate, three biological replicates) is 0.125 µM; in test [4] (E. coli ATCC 25922, cation adjusted Mueller Hinton broth, 37 °C, 18 h, ~5 x10^5 CFU/mL, triplicate, three biological replicates) it was 0.125 µM.
